# Legend:
# [1] = test system: ApoE−/− mice; assay: Immunofluorescence staining of aortic root sections (MOMA-2, SMCα-Actin) in ApoE−/− mice; type: in vivo, mouse; settings: 13 weeks
# Source text: All experiments related to animals were approved by the institutional animal care and use committee of Peking University and followed the guidelines for animal experiments of the university as well as for experimental animals in China. The biological effect size of the animal experiments was based on the previous paper ([Negro Silva et al. 2017]). C57BL/6 (12 weeks old) and ApoE^−/− mice (12 weeks old) were obtained from the Beijing Vital River Laboratory Animal Technology Company. Mice used in the experiments were acclimated to the housing unit 2 weeks before they were used for experiments, and they were randomly assigned to control or TPHP treatment groups. Five animals were housed to a cage, and mice were acclimatized to the controlled environment (temperature: 22±2°C; relative humidity: 40–60%; artificial lighting: 12 h:12 h light/dark). Mice received diet and drinking water ad libitum. Body weight (BW) was measured every week during the dosing period. Forty-five C57BL/6 mice and 27 ApoE^−/− mice were used in this study. Animal protocol 1: Male C57BL/6 mice (five mice per group) were fed a basic diet (Laboratory Animal Center of the Academy of Military Medical Sciences, China). On Day 0, mice were stimulated with paraffin oil by intraperitoneal injection. From Day 1 to Day 7, mice were exposed to corn oil (control) or TPHP (dissolved in corn oil) at 40 or 200mg/kg BW by daily oral gavage. The volume of the corn oil or TPHP in corn oil administered was 5mL/kg BW. On Day 8, after the mice were anesthetized by sodium pentobarbital via intramuscular injection, peritoneal macrophages were harvested from peritoneal lavage with 4mL pre-warmed DMEM-F12 (containing 10% FBS) using a 25-gauge needle; 5–10 min later, 3–3.5mL peritoneal fluid was collected, and the cells were isolated by centrifuge at 1,000 rpm for 5 min. […] Considering that this study assessed the effects of short-term exposure to TPHP, whereas humans are exposed to TPHP over a lifelong period, the present study used exposure doses that were higher than that of human exposure from house dust. […]
# [2] = test system: ABCA1; assay: qRT-PCR of LXR target gene ABCA1 in RAW264.7 macrophages; type: cell-based; settings: vehicle-treated cells set to 1, p<0.01
# Method: RAW264.7 cells were obtained from the National Infrastructure of Cell Line Resource of Beijing, China, and the cells used for the experiment were cultured for at least three passages. Dulbecco’s Modified Eagle’s Medium (DMEM)-F12 medium containing 10% fetal bovine serum (FBS) was employed to culture the RAW264.7 cells. RAW264.7 cells were incubated at 37°C with 5% carbon dioxide. The RAW264.7 cells were plated at 2.5×10^5 cells/well (6-well plates), 6.0×10^4 cells/well (24-well plates), and 10^4 cells/well (96-well plates). The RAW264.7 cells were plated and grown overnight; then the medium was removed and fresh DMEM-F12 contained with 0.1% DMSO (control; n=3 ) or TPHP at the concentrations of 1–20,000 nM ( n=3 per group) was added. […] Then the cells were used for the quantitative reverse transcription (qRT)-PCR, cellular cholesterol efflux assay, and foam cell formation experiment.
# Total RNA was isolated from RAW264.7 cells and mouse peritoneal macrophages using TRIzol reagent according to the manufacturer’s instructions. Then a Nanovue Plus™ spectrophotometer (GE Healthcare Life Science) was used to analyze the concentration, quality, and purity of the RNA. Total RNA ( 1μg ) was mixed with oligo deoxythymine (dT) ( 1μL ) at 70°C for 5 min and then combined with a mixture containing Moloney murine leukemia virus (MMLV) reverse transcriptase ( 1μL ), deoxy-ribonucleoside triphosphate (dNTP) ( 1.25μL ), Recombinant RNasin® Ribonuclease Inhibitor (Promega) ( 0.65μL ), and MMLV buffer ( 5μL ) at 42°C for 60 min. The SYBR® Green PCR Kit (TOYOBO) was used for RT-PCR analysis. Real-time fluorescence detection was performed using the StepOnePlus™ sequence detection system (Applied Biosystems). […] The following primers were designed and purchased from Sangon Biotech:
# • actin: 5′-[…]-3′ and 5′-[…]-3′ ATP-binding cassette transporter A1 (ABCA1): 5′-[…]-3′ and 5′-[…]-3′ • ATP-binding cassette transporter G1 (ABCG1): 5′-[…]-3′ and 5′-[…]-3′.
# [3] = test system: peroxisome proliferator-activated receptor-γ (PPARγ); set-up: method as in Hu et al. 2017; Pillai et al. 2014; settings: ref Hu et al. 2017; Pillai et al. 2014; cited from earlier work
smiles,measurement,setting,value
"O=P(Oc1ccccc1)(Oc1ccccc1)Oc1ccccc1 [TPHP, triphenyl phosphate]","Macrophage content (MOMA-2) in aortic root lesions, higher than control","[1]; 10 mg/kg BW, p<0.05",1.9 fold
same,"Macrophage content (MOMA-2) in aortic root lesions, higher than control","[1]; 40 mg/kg BW, p<0.01",3.1 fold
same,Abundance of SMCs (SMCα-Actin) in the aortic roots versus control,[1]; 10 and 40 mg/kg BW,a significant difference was not found
same,ABCA1 gene expression relative to control,"[2]; 5,000 nM",0.49±0.06 fold
same,ABCA1 gene expression relative to control,"[2]; 10,000 nM",0.38±0.01 fold
same,ABCA1 gene expression relative to control,"[2]; 20,000 nM",0.30±0.03 fold
same,PPARγ activity,[3],agonist

# Source: paper PMC6927504, “Screening of House Dust from Chinese Homes for Chemicals with Liver X Receptors Binding Activities and Characterization of Atherosclerotic Activity Using an in Vitro Macrophage Cell Line and ApoE^−/− Mice” (Environmental Health Perspectives, 2019)
